Measurements from US20230107941A1, “HEPATITIS B CAPSID ASSEMBLY MODULATORS” (Venatorx Pharmaceuticals, Inc., priority 2019, published 2023).
Where two headings read alike, the source gives them in different places.

Experiments:
HBV [1] = conditions: Phase 1b clinical trial, 600 mg bid dosing for 29 days; cited from earlier work
HBV [2] = assay: In vitro antiviral assay: anti-HBV replication in HepAD38 cells (extracellular HBV DNA by QPCR); type: cell-based, hepatitis B virus (genotype D, serotype ayw); conditions: 7 days incubation, extracellular HBV DNA by QPCR, read-out: Anti-HBV EC50
Outline: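 HepG2-derived HepAD38 cells (HBV genotype D, ayw, tet-repressible CMV) induced by tetracycline withdrawal, treated 7 days at 37 °C with compound (1 μM to 10 pM, 10-fold steps). Supernatant HBV DNA quantified by QPCR against standard curve, percent of DMSO control; EC50 by 4-parameter fit; entecavir positive control.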

HepG2 cells = assay: In vitro cytotoxicity assay (MTT cell viability) in HepG2 cells; type: cell-based, human
Outline: (§1)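 CC50 was derived by 4-parameter fit of viability relative to vehicle controls, measured as MTT formazan absorbance at 492 nm after 3–4 h of reagent and DMSO solubilization. Before that, HepG2 cells seeded overnight at 20,000/well were incubated 7 days at 37°C with compound from 30 μM down to 1.0 nM in half-log steps.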

[3] = as above; type: cell-based, human; conditions: human
Outline: as §1

[4] = Hepatitis B virus, HePAD38, 168 h

Compound	EC50 (HBV [2]; [4])	CC50 at 7 days [3]	other results
O=C(Nc1cc(F)c(F)c(F)c1)c1ccc(F)c(S(=O)(=O)N2CCC(O)CC2)c1 [NVR 3-778]			reduction in HBV DNA (HBV [1]): −1.7 log 10
Cc1cc(NC(=O)c2c(C)c(C(=O)C(=O)NC3(C)CC(OP(=O)(O)O)C3)n(C)c2C)ccc1F (centres unmarked) [Example 64, sodium (1s,3s)-3-(2-(4-((4-fluoro-3-methylphenyl)carbamoyl)-1,3,5-trimethyl-1H-pyrrol-2-yl)-2-oxoacetamido)-3-methylcyclobutyl phosphate]	> 1 µM		CC50 (HepG2 cells; HepG2 cells, 7 days incubation, MTT, read-out: HepG2 CC50): > 30 µM
Cc1cc(NC(=O)c2c(C)c(C(=O)C(=O)NC3CC(S(C)(=O)=O)C3)n(C)c2C)ccc1F (centres unmarked) [Example 32, N-(4-fluoro-3-methylphenyl)-1,2,4-trimethyl-5-(2-(((1r,3r)-3-(methylsulfonyl)cyclobutyl)amino)-2-oxoacetyl)-1H-pyrrole-3-carboxamide]			EC50 (HBV [2]): 0.05 to 0.499 µM; CC50 (HepG2 cells; human, 7 days): > 30 µM
Cc1cc(Cl)cc(NC(=O)c2c(C)c(C(=O)C(=O)N[C@]3(C)CC[C@@H](O)CC3)n(C)c2C)c1 [Example 169, N-(3-chloro-5-methylphenyl)-5-(2-(((1r,4r)-4-hydroxy-1-methylcyclohexyl)amino)-2-oxoacetyl)-1,2,4-trimethyl-1H-pyrrole-3-carboxamide]	< 0.05 µM	5 to 30 µM	
Cc1cc(NC(=O)c2c(C)c(C(=O)C(=O)NCC(C)(C)O)n(C)c2-c2ccccn2)ccc1F [Example 159, N-(4-fluoro-3-methylphenyl)-5-(2-((2-hydroxy-2-methylpropyl)amino)-2-oxoacetyl)-1,4-dimethyl-2-(pyridin-2-yl)-1H-pyrrole-3-carboxamide]	> 1 µM	> 30 µM	
Cc1cc(NC(=O)c2c(C)c(C(=O)C(=O)Nc3cccnc3N3CCOCC3)n(C)c2C)ccc1F [Example 53, N-(4-fluoro-3-methylphenyl)-1,2,4-trimethyl-5-(2-((2-morpholinopyridin-3-yl)amino)-2-oxoacetyl)-1H-pyrrole-3-carboxamide]	< 0.05 µM	> 30 µM	
CCc1c(C(=O)Nc2ccc(F)c(C)c2)c(C)n(C)c1C(=O)C(=O)NCC(C)(C)O [Example 88, 4-ethyl-N-(4-fluoro-3-methylphenyl)-5-(2-((2-hydroxy-2-methylpropyl)amino)-2-oxoacetyl)-1,2-dimethyl-1H-pyrrole-3-carboxamide]	0.5 to 1 µM	> 30 µM	
Cc1cc(NC(=O)c2c(C)c(C(=O)C(=O)N[C@]3(C4CC4)CC[C@H](O)CC3)n(C)c2C)ccc1F [Example 6, 5-(2-(((1s,4s)-1-cyclopropyl-4-hydroxycyclohexyl)amino)-2-oxoacetyl)-N-(4-fluoro-3-methylphenyl)-1,2,4-trimethyl-1H-pyrrole-3-carboxamide]	< 0.05 µM	> 30 µM	
CC[C@]1(NC(=O)C(=O)c2c(C)c(C(=O)Nc3ccc(F)c(C)c3)c(C)n2C)CC[C@@H](O)CC1 [Example 5, 5-(2-(((1s,4s)-1-ethyl-4-hydroxycyclohexyl)amino)-2-oxoacetyl)-N-(4-fluoro-3-methylphenyl)-1,2,4-trimethyl-1H-pyrrole-3-carboxamide]	< 0.05 µM	> 30 µM	
